According to paper PMC4169885 (Biochemical pharmacology, 2014):

Key:
CYP2J2 [1] = conditions: projected; ref [14]; cited from earlier work
[2] = Plasma concentration-time profile of RTV and metabolites; format: in vivo; conditions: human, 400 mg bid
CYP2D6 = CYP2D6 (Homo sapiens, UniProt P10635); conditions: CYP2D6, R2 formation; ref [6], [34]; cited from earlier work
CYP3A4 = conditions: ref [27] [11]; cited from earlier work
CYP2J2 [3] = target: T1, CYP2J2 (Homo sapiens, UniProt P51589); conditions: CYP2J2, linear scaled according to kinact/KI (SCHH approach)
T1 sequence (P51589 1-502): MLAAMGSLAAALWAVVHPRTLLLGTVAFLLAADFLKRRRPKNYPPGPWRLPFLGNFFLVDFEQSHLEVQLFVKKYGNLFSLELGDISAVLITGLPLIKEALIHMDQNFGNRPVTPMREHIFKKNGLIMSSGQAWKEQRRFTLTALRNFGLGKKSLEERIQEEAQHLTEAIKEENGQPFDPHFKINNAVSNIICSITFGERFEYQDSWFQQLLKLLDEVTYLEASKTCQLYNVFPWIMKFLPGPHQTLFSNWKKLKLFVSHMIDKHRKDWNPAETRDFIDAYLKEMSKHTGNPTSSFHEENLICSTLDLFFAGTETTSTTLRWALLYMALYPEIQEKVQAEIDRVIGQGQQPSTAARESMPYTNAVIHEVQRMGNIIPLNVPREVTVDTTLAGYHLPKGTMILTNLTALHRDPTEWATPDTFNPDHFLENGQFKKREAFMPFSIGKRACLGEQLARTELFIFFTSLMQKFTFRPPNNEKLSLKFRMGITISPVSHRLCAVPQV

CYP2J2 [4] = target: T1, CYP2J2; assay: in vitro; conditions: recombinant enzyme

Sequence of CYP2D6 (P10635 whole entry): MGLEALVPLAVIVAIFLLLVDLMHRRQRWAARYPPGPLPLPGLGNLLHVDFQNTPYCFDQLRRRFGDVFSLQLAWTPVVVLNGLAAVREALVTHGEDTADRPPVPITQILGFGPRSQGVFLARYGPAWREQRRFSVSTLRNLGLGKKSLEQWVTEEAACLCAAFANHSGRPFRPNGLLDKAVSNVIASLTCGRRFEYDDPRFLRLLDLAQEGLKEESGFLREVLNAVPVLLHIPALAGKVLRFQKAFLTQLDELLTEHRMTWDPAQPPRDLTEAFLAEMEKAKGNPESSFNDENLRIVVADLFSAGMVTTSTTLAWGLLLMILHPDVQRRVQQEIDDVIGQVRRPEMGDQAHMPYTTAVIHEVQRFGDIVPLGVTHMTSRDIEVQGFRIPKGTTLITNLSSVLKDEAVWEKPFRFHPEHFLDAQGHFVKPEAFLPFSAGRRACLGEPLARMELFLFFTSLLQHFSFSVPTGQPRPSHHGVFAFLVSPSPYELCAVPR

**Q.** With `CC(C)(C)c1ccc(C(=O)CCCN2CCC(OC(c3ccccc3)c3ccccc3)CC2)cc1` [ebastine] as the compound, how does the “contribution of CYP2J2 to intestinal ebastine hydroxylation” value (CYP2J2 [1]) read?
**A.** ≤ 70%

**Q.** With `CC(C)c1nc(CN(C)C(=O)N[C@H](C(=O)N[C@@H](Cc2ccccc2)C[C@H](O)[C@H](Cc2ccccc2)NC(=O)OCc2cncs2)C(C)C)cs1` [RTV, Ritonavir] as the compound, how does the Cmax [2] read?
**A.** 4.8 µM

**Q.** What about the Km (CYP2D6) of the same compound?
**A.** 1.6 µM

**Q.** And the “slope at 1 μM” value (CYP3A4)?
**A.** 0.17 ^2 μM min^-1

**Q.** What about the “slope at 1 μM” value (CYP2J2 [3]) of the same compound?
**A.** 0.0044 ^4 μM min^-1

**Q.** For `C#C[C@]1(O)CC[C@H]2[C@@H]3CCC4=Cc5oncc5C[C@]4(C)[C@H]3CC[C@@]21C` [danazol], which inhibition at 5 min (CYP2J2 [4]) is on record?
**A.** 95%
